Consider nine compounds from US20070213359A1 (ACADIA Pharmaceuticals Inc., priority 2005, published 2007).

Where two headings read alike, the source gives them in different places.

Assay [1] concerns the target T1, Ghrelin receptor (Homo sapiens, UniProt Q92847). The assay can be described thus: Aeg. The class given is cell-based.
Target sequence in this assay (Q92847 whole entry): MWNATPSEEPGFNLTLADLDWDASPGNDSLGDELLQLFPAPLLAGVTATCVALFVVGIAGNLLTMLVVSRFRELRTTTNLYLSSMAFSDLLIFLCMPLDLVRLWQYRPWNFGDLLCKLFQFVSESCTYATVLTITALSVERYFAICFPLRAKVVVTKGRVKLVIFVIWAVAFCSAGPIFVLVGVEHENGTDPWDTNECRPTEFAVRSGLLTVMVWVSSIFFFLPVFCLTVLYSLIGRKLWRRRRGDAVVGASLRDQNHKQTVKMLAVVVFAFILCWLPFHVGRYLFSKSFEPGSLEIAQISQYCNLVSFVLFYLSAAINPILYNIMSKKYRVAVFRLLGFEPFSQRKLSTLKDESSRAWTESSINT
For the next assay, the target named is T2, GHSR1a receptor (Homo sapiens, UniProt Q92847).
T2 construct: expressed in transfected cells; host or cells: HEK293 (membranes)
The assay can be described thus: 125I-Ghrelin binding assay. As to conditions: displacement of 125I-ghrelin (0.053 nM), membranes of HEK293 cells transfected with GHSR1a, Cheng-Prussoff, '—' not defined. On the technique in general: In a radioligand displacement assay an active substance lowers the binding of a labelled ligand.

Assay [2] concerns the target T1, Ghrelin receptor. The assay can be described thus: Receptor Selection and Amplification Technology (R-SAT) assay. As to conditions: for IC50: '—' not defined (nd used separately), read-out: RSAT pIC50 (converted); for Emax: read-out: RSAT Eff(%). Set-up: expressed in transfected cells; host or cells: NIH3T3. Type of assay: cell-based.
Target sequence in this assay (Q92847 whole entry): as above
The target of assay [3] is T1, Ghrelin receptor. The assay can be described thus: pIC50. The arrangement: expressed in transfected cells; host or cells: NIH3T3. An excerpt:
Table printed on a drawing sheet, Figure 1
First copying reader's note: The table stands under a dose-response plot; chemical names broken over two lines at a hyphen are joined by a blank.
Target sequence in this assay (Q92847 whole entry, looked up): as the sequence (Q92847 whole entry) above

For assay [4], the system named is fasted, male Sprague-Dawley rats. The assay can be described thus: Suppression of acute feeding response in fasted rats. Type of assay: in vivo, rat. As to conditions: intraperitoneal, 30 mg/kg.
Setting [5] is: read-out: Binding pKi (converted).
Where [6] appears, read: negative logarithm of ligand concentration causing 50% inhibition of constitutive receptor response, transfected NIH3T3 cells.
[7] abbreviates: percent inhibition at saturating ligand, normalized to reference ligand Substance P analog = 100%.

T2 sequence (Q92847 whole entry): as above

For `COc1cccc2c(C(=O)c3ccccc3)cn(CCCN3CCC(c4nc5ccccc5s4)CC3)c12`, the IC50 at Ghrelin receptor [1] was 63.1 nM; on Ghrelin receptor [2] ([…]), 0.2 nM. The same compound showed a Ki at GHSR1a receptor (Binding pKi) of 39.8 nM. In addition, the Emax on Ghrelin receptor [2] amounted to 107%.

Regarding `COc1cccc2c(C(=O)C3CC3)cn(CCCN3CCC(Oc4ccc(F)cc4)CC3)c12`, the IC50 is 39.8 nM against Ghrelin receptor [1] and 0.398 nM on Ghrelin receptor [2] ([…]). Besides, the Ki at GHSR1a receptor (Binding pKi) was 50.1 nM. In addition, the Emax on Ghrelin receptor [2] came to 101%.

As for `CCCCC1CCN(CCCn2cc(C(C)=O)c3ccccc32)CC1` [1-(1-(3-(4-butylpiperidin-1-yl)propyl)-1H-indol-3-yl)ethanone], the IC50 against Ghrelin receptor [3] is 158 nM. The suppression of feeding result in assay [4] is “Robust suppression of feeding”.

Take `CC(=O)c1cn(CCCN2C3CCC2CC(CCc2ccccc2)C3)c2ccccc12` (centres unmarked) [drawing 433]: the Ki on GHSR1a receptor (setting [5]) was 1580 nM. Further, on Ghrelin receptor [2] (setting [6]), the IC50 was 63.1 nM. At Ghrelin receptor [2] (setting [7]), the “RSAT Eff(%)” value was determined as 96%.

Take `CC(=O)c1cn(CCCN2CCC(Oc3ccc(F)cc3)CC2)c2ccccc12` [drawing 551]: at GHSR1a receptor (setting [5]), the Ki is 2000 nM. For the same compound, on Ghrelin receptor [2] (setting [6]), the IC50 is 398 nM. For the same compound, the “RSAT Eff(%)” value on Ghrelin receptor [2] (setting [7]) was found to be 96%.

On to `COc1ccccc1C1CCN(CCCn2cc(C(C)=O)c3ccccc32)CC1` [drawing 576], for which the Ki on GHSR1a receptor (setting [5]) was 1260 nM. Further, the IC50 on Ghrelin receptor [2] (setting [6]) is 501 nM. Further, the “RSAT Eff(%)” value at Ghrelin receptor [2] (setting [7]) is listed as 106%.

Regarding `CCCCC1CCN(CCCn2cc(C(C)=O)c3ccccc32)CC1` [drawing 584], the Ki at GHSR1a receptor (Binding pKi) was 3980 nM. The IC50 on Ghrelin receptor [2] ([…]) is 631 nM. The Emax at Ghrelin receptor [2] came out at 77%.

On to `CC(=O)c1cn(CCCN2CCC(Oc3ccccc3Cl)CC2)c2ccccc12` [drawing 599], for which the Ki on GHSR1a receptor (setting [5]) was 2510 nM. Moreover, the “RSAT Eff(%)” value on Ghrelin receptor [2] (setting [7]) came out at 116%.

Regarding `O=C(NCc1cccc(Cl)c1)c1cn(CCCN2CCC(Oc3ccc(F)cc3)CC2)c2ccccc12` [drawing 659], the Ki on GHSR1a receptor (setting [5]) was 1580 nM. In addition, the “RSAT Eff(%)” value on Ghrelin receptor [2] is 67%.
